Key:
[1] = system: HEK-293 cells; assay: phospho-ERK in non-transfected HEK-293 control cells; assay type: cell-based, human; settings: control HEK293, no GPRC6A
Experimental: (§1) Equal amounts of lysates were subjected to 10% SDS-PAGE, and phospho-ERK1/2 levels were determined by immunoblotting using antiphospho-ERK1/2 mitogen-activated protein kinase antibody (Cell Signaling Technology). […] An anti-peptide antibody was raised in a rabbit against a peptide ([…] (SEQ ID NO: 27)) corresponding to a sequence in the extracellular domain of mouse GPRC6A (in exon 1 of mouse GPRC6A gene) produced by Abgent (San Diego, Calif.). For phospho-ERK, the phospho-ERK1/2 levels were determined by immunoblotting using anti-phospho-ERK1/2 mitogen-activated protein kinase antibody (Cell Signaling Technology). Urinary β2-microglobulin was detected by rabbit polyclonal anti-β2-microglobulin antibody (Abcam Inc.). For aromatase expression analysis, the rabbit polyclonal anti-aromatase antibody (Abcam Inc.) and goat anti-rabbit IgG HRP secondary antibody (Santa Cruz Biotechnology Inc.) were used. Mouse anti-Actin antibody (Santa Cruz Biotechnology Inc.) was used for control protein loading.

[2] = system: seminal vesicles; assay: seminal vesicle size after orchiectomy and testosterone replacement; assay type: in vivo, mouse; settings: testosterone slow releasing pellet
From the text: First, the male WT and GPRC6A^−/− littermates will be castrated by removal of the testicles (orchiectomy) and hormone recovered by implanting testosterone slow releasing pellet.

[3] = target: T1, calcium sensing receptor (CASR) (Rattus norvegicus, UniProt P48442); assay: phospho-ERK in HEK-293 cells transfected with calcium sensing receptor; assay type: cell-based; settings: HEK293 transfected with CASR
T1 construct: expressed in transfected cells; host or cells: HEK-293
T1 sequence (P48442 20-1079): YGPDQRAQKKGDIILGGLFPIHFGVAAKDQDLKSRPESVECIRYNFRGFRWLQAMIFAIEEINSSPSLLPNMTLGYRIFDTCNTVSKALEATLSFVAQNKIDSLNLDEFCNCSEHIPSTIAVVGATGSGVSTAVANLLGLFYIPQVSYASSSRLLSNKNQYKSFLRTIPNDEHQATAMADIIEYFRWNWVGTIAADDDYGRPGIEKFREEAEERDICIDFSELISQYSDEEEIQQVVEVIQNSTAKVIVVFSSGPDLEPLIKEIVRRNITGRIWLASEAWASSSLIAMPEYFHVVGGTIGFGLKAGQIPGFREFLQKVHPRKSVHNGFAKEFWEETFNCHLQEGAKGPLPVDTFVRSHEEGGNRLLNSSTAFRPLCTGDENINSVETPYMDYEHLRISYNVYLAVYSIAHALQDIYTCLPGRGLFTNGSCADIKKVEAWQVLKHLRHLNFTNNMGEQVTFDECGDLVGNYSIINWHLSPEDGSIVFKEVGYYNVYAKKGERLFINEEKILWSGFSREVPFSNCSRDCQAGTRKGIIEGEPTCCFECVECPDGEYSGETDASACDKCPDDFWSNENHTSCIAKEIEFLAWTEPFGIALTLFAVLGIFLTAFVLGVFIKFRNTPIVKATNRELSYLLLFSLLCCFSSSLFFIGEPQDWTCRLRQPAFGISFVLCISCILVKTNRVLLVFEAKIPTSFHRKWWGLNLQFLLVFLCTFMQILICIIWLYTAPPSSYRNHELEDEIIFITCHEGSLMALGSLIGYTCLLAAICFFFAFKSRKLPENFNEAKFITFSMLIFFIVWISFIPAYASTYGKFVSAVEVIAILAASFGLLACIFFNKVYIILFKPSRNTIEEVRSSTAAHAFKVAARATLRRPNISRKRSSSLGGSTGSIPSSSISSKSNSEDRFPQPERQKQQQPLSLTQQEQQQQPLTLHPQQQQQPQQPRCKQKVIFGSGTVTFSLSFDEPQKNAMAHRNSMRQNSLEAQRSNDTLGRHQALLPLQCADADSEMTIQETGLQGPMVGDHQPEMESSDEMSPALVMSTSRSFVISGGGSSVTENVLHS
Experimental: as §1

For `C[C@]12CC[C@H]3[C@@H](CCC4=CC(=O)CC[C@@]43C)[C@@H]1CC[C@@H]2O` [testosterone], the phospho-ERK response [1] was “did not responded”, the “recovery of seminal vesicle size” value ([2]; orchidectomized GPRC6A-/- mice) was “weaker compared to wild-type” and the “recovery of seminal vesicle size” value ([2]; orchidectomized wild-type mice) was “effectively recovered the size of seminal vesicles”. For the same compound, the phospho-ERK response [3] was “did not responded”.
